# Reference: patent US8802597B2, “Herbicidal pyrimidines” (E I du Pont de Nemours and Company, priority 2003, dated 2014)
# Assays:
# Type in all cases: in vivo
# [1] = tested on: Surinam grass (Brachiaria decumbens); assay: Test B pre/postemergence
# Procedure, shortened: (§1)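 Plants treated pre- or postemergence were compared visually with controls after 13 to 15 days. Ratings ran from 0, no effect, to 100, complete control.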
# [2] = tested on: barnyardgrass (Echinochloa crus-galli); assay: Test B pre/postemergence
# Procedure, shortened: as §1
# [3] = tested on: cocklebur (Xanthium strumarium); assay: Test B pre/postemergence
# Procedure, shortened: as §1
# corn (Zea mays) = assay: Test B pre/postemergence
# Procedure, shortened: as §1
# [4] = tested on: crabgrass (Digitaria sanguinalis); assay: Test B pre/postemergence
# Procedure, shortened: as §1
# [5] = tested on: giant foxtail (Setaria faberii); assay: Test B pre/postemergence
# Procedure, shortened: as §1
# [6] = tested on: lambsquarters (Chenopodium album); assay: Test B pre/postemergence
# Procedure, shortened: as §1
# [7] = tested on: morningglory (Ipomoea coccinea); assay: Test B pre/postemergence
# Procedure, shortened: as §1
# [8] = tested on: pigweed (Amaranthus retroflexus); assay: Test B pre/postemergence
# Procedure, shortened: as §1
# [9] = tested on: velvetleaf (Abutilon theophrasti); assay: Test B pre/postemergence
# Procedure, shortened: as §1
# [10] = tested on: wheat (Triticum aestivum); assay: Test B pre/postemergence
# Procedure, shortened: as §1
# [11] = tested on: blackgrass (Alopecurus myosuroides); assay: Test B postemergence; details: for Blackgrass plant response rating: scale 0 to 100 (0 no effect, 100 complete control)
# Procedure, shortened: as §1
# wild oat (Avena fatua) = assay: Test B postemergence; details: for Oat, Wild plant response rating: scale 0 to 100 (0 no effect, 100 complete control)
# Procedure, shortened: as §1
# [12] = tested on: barnyardgrass (Echinochloa crus-galli); assay: Test B flooded paddy test; details: Flood
# Procedure, shortened: (§2)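 Visual injury scoring (0 = no effect, 100 = complete control) versus controls made 13 to 15 days after treatment in the greenhouse. Test species were grown in flooded paddy to the 2-leaf stage: rice, barnyardgrass, umbrella sedge, duck salad.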
# [13] = tested on: duck salad (Heteranthera limosa); assay: Test B flooded paddy test; details: Flood, scale 0 to 100
# Procedure, shortened: as §2
# rice (Oryza sativa) = assay: Test B flooded paddy test; details: Flood, scale 0 to 100
# Procedure, shortened: as §2
# [14] = tested on: umbrella sedge (Cyperus difformis); assay: Test B flooded paddy test; details: Flood, scale 0 to 100
# Procedure, shortened: as §2
# [15] = Postemergence, 62 g ai/ha, scale 0 to 100 (0 no effect, 100 complete control)
# [16] = Postemergence, 125 g ai/ha, scale 0 to 100 (0 no effect, 100 complete control)
# [17] = Preemergence, 62 g ai/ha, scale 0 to 100, 0 no effect, 100 complete control
# [18] = Preemergence, 125 g ai/ha, scale 0 to 100 (0 no effect, 100 complete control)
# [19] = Postemergence, 500 g ai/ha, scale 0 to 100
# [20] = Preemergence, 500 g ai/ha, scale 0 to 100 (0 no effect, 100 complete control)
structure (smiles),measurement,setting,value
CCCCOC(=O)c1nc(C2CC2)nc(N)c1Cl [Compound 76],Surinam Grass plant response rating,[1]; [15],70
same,Surinam Grass plant response rating,[1]; [16],80
same,"Plant response rating, Surinam Grass",[1]; [17],70
same,"Plant response rating, Surinam Grass",[1]; [18],90
same,Barnyardgrass plant response rating,[2]; [15],90
same,Barnyardgrass plant response rating,[2]; [16],90
same,"Plant response rating, Barnyardgrass",[2]; [17],40
same,"Plant response rating, Barnyardgrass",[2]; [18],90
same,Cocklebur plant response rating,[3]; [15],60
same,Cocklebur plant response rating,[3]; [16],90
same,"Plant response rating, Cocklebur",[3]; [17],80
same,"Plant response rating, Cocklebur",[3]; [18],100
same,Corn plant response rating,corn (Zea mays); [15],50
same,Corn plant response rating,corn (Zea mays); [16],70
same,"Plant response rating, Corn",corn (Zea mays); [17],70
same,"Plant response rating, Corn",corn (Zea mays); [18],80
same,Crabgrass plant response rating,[4]; [15],70
same,Crabgrass plant response rating,[4]; [16],90
same,"Plant response rating, Crabgrass",[4]; [17],80
same,"Plant response rating, Crabgrass",[4]; [18],90
same,"Foxtail, Giant plant response rating",[5]; [15],60
same,"Foxtail, Giant plant response rating",[5]; [16],80
same,"Plant response rating, Foxtail, Giant",[5]; [17],40
same,"Plant response rating, Foxtail, Giant",[5]; [18],80
same,Lambsquarters plant response rating,[6]; [15],100
same,Lambsquarters plant response rating,[6]; [16],100
same,"Plant response rating, Lambsquarters",[6]; [17],90
same,"Plant response rating, Lambsquarters",[6]; [18],100
same,Morningglory plant response rating,[7]; [15],100
same,Morningglory plant response rating,[7]; [16],100
same,"Plant response rating, Morningglory",[7]; [17],100
same,"Plant response rating, Morningglory",[7]; [18],100
same,Pigweed plant response rating,[8]; [15],90
same,Pigweed plant response rating,[8]; [16],100
same,"Plant response rating, Pigweed",[8]; [17],100
same,"Plant response rating, Pigweed",[8]; [18],100
same,Velvetleaf plant response rating,[9]; [15],90
same,Velvetleaf plant response rating,[9]; [16],90
same,"Plant response rating, Velvetleaf",[9]; [17],80
same,"Plant response rating, Velvetleaf",[9]; [18],90
same,Wheat plant response rating,[10]; [15],60
same,Wheat plant response rating,[10]; [16],70
same,"Plant response rating, Wheat",[10]; [17],30
same,"Plant response rating, Wheat",[10]; [18],70
same,Blackgrass plant response rating,[11]; 62 g ai/ha,50
same,Blackgrass plant response rating,[11]; 125 g ai/ha,60
same,"Oat, Wild plant response rating",wild oat (Avena fatua); 62 g ai/ha,50
same,"Oat, Wild plant response rating",wild oat (Avena fatua); 125 g ai/ha,60
same,"Plant response rating, Barnyardgrass","[12]; 125 g ai/ha, scale 0 to 100",0
same,"Plant response rating, Barnyardgrass","[12]; 500 g ai/ha, scale 0 to 100",70
same,"Plant response rating, Ducksalad",[13]; 125 g ai/ha,0
same,"Plant response rating, Ducksalad",[13]; 500 g ai/ha,70
same,"Plant response rating, Rice",rice (Oryza sativa); 125 g ai/ha,0
same,"Plant response rating, Rice",rice (Oryza sativa); 500 g ai/ha,50
same,"Plant response rating, Sedge, Umbrella",[14]; 125 g ai/ha,30
same,"Plant response rating, Sedge, Umbrella",[14]; 500 g ai/ha,70
CCCCOC(=O)c1nc(C2CC2)nc(N)c1Br [Compound 16],Surinam Grass plant response rating,[1]; [16],60
same,"Plant response rating, Surinam Grass",[1]; [19],90
same,"Plant response rating, Surinam Grass",[1]; [18],40
same,Surinam Grass plant response rating,[1]; [20],80
same,Barnyardgrass plant response rating,[2]; [16],70
same,"Plant response rating, Barnyardgrass",[2]; [19],90
same,"Plant response rating, Barnyardgrass",[2]; [18],30
same,Barnyardgrass plant response rating,[2]; [20],90
same,Cocklebur plant response rating,[3]; [16],90
same,"Plant response rating, Cocklebur",[3]; [19],100
same,"Plant response rating, Cocklebur",[3]; [18],70
same,Cocklebur plant response rating,[3]; [20],100
same,Corn plant response rating,corn (Zea mays); [16],30
same,"Plant response rating, Corn",corn (Zea mays); [19],80
same,"Plant response rating, Corn",corn (Zea mays); [18],30
same,Corn plant response rating,corn (Zea mays); [20],70
same,Crabgrass plant response rating,[4]; [16],30
same,"Plant response rating, Crabgrass",[4]; [19],80
same,"Plant response rating, Crabgrass",[4]; [18],70
same,Crabgrass plant response rating,[4]; [20],100
same,"Foxtail, Giant plant response rating",[5]; [16],30
same,"Plant response rating, Foxtail, Giant",[5]; [19],80
same,"Plant response rating, Foxtail, Giant",[5]; [18],30
same,"Foxtail, Giant plant response rating",[5]; [20],80
same,Lambsquarters plant response rating,[6]; [16],100
same,"Plant response rating, Lambsquarters",[6]; [19],100
same,"Plant response rating, Lambsquarters",[6]; [18],100
same,Lambsquarters plant response rating,[6]; [20],100
same,Morningglory plant response rating,[7]; [16],100
same,"Plant response rating, Morningglory",[7]; [19],100
same,"Plant response rating, Morningglory",[7]; [18],90
same,Morningglory plant response rating,[7]; [20],100
same,Pigweed plant response rating,[8]; [16],90
same,"Plant response rating, Pigweed",[8]; [19],100
same,"Plant response rating, Pigweed",[8]; [18],90
same,Pigweed plant response rating,[8]; [20],90
same,Velvetleaf plant response rating,[9]; [16],80
same,"Plant response rating, Velvetleaf",[9]; [19],90
same,"Plant response rating, Velvetleaf",[9]; [18],80
same,Velvetleaf plant response rating,[9]; [20],100
same,Wheat plant response rating,[10]; [16],30
same,"Plant response rating, Wheat",[10]; [19],60
same,"Plant response rating, Wheat",[10]; [18],50
same,Wheat plant response rating,[10]; [20],60
same,Blackgrass plant response rating,[11]; 125 g ai/ha,10
same,"Plant response rating, Blackgrass","[11]; 500 g ai/ha, scale 0 to 100",70
same,"Oat, Wild plant response rating",wild oat (Avena fatua); 125 g ai/ha,10
same,"Plant response rating, Oat, Wild","wild oat (Avena fatua); 500 g ai/ha, scale 0 to 100",60
same,"Plant response rating, Barnyardgrass","[12]; 1000 g ai/ha, scale 0 (no effect) to 100 (complete control)",90
same,"Plant response rating, Ducksalad",[13]; 1000 g ai/ha,90
same,"Plant response rating, Rice",rice (Oryza sativa); 1000 g ai/ha,70
same,"Plant response rating, Sedge, Umbrella",[14]; 1000 g ai/ha,60
